{"source": "patent US20080200526A1", "about": "“Composition for the Prevention and Treatment of Allergic Inflammatory Disease” (priority 2004, published 2008)", "key": {"asthma": {"tested_on": "asthma", "conditions": "clinical test, Lilly; Evans D J, Thorax 1996; cited from earlier work"}, "[1]": {"tested_on": "mouse models of ovalbumin-induced asthma", "assay": "Lung weight, mouse model of ovalbumin-induced asthma", "assay_type": "in vivo", "conditions": "18 days, mean ± SD; for Lung Relative Wt.: percentage of body weight", "description": "(§1) The benzamidine compound of Chemical Formula 1 was assayed for therapeutic effect on allergic inflammation in mouse models of ovalbumin-induced asthma. Starting at the sensitization with ovalbumin, the administration of the benzamidine compound was for 18 consecutive days. The experimental animals were re-exposed to ovalbumin 15 days after the sensitization and then sacrificed 3 days after the re-exposure. Changes in lung weight, cellular components of peripheral blood and bronchoalveolar lavage fluid, and lung histopathology were observed.\n(§2) A total of 20 female C57BL/6 mice (6-week-old, BioGenomics, Korea) was adapted to a laboratory environment for 6 days before being used in earnest experiments. While being housed at a density of five in a plastic cage, the experimental animals were bred in a breeding room with controlled temperature (20 to 25° C.) and humidity (30 to 35%). Under light-dark cycles of 12 hours, mice were allowed to have free access to feedstuff and tap water. While asthma was induced in 15 mice by ovalbumin, 5 mice were used as a non-treated group.\n(§3) 100 mg and 200 mg of N-hydroxy-4-{5-[4-(5-isopropyl-2-methyl-1,3-thiazol-4-yl)phenoxy]pentoxy}-benzamidine were completely dissolved in 5 ml of sterilized distilled water. The benzamidine compound in the solutions was orally administered at doses of 100 mg and 200 mg per kg of body weight once a day from the day of the sensitization with ovalbumin. The control group was administered with equal volumes of sterilized distilled water in the same manner.\n(§4) A solution of 200 μg of ovalbumin (Grade V; Sigma, St. Louis, Mo., USA) and 180 mg of aluminum hydroxide (Al(OH)3, dried powder gel; Aldrich, Milwaukee, USA) in 4 ml of physiological saline was allowed to stand at 4° C. overnight and was administered to the experimental animals (200 μl, abdominal injection) for sensitization. As for the non-treated group, a solution of only aluminum hydroxide in saline was injected. 15 days after sensitization, a 1.5% ovalbumin solution was sprayed in air using a nebulizer, followed by exposing the experimental animals to the spray for 10 min to induce asthma therein. The non-treated group was exposed only to saline in the same manner. All the experimental animals were sacrificed 3 days after the exposure.\nOn the final day of experiment, the lungs were separated from adjacent organs. The removed lungs were weighed in grams. To minimize errors due to the difference in body weight among individual animals, the relative weight of the lungs was calculated as a percentage of body weight using the following mathematic formula 1."}, "[2]": {"tested_on": "mouse models of ovalbumin-induced asthma", "assay": "Lung histopathological observation and histomorphology", "assay_type": "in vivo", "conditions": "for Alveolar Area (proportion of alveolar lumen in lung tissue) / Counts of goblet Cells Brochiole / Counts of goblet Cells Bronchus / Wall Thick. Brochiole / Wall Thick. Bronchus: 18 days, mean ± SD", "description": "as §1, §2, §3, §4\nThe lungs removed after asthma induction were fixed in 10% neutral formalin and embedded in paraffin. The paraffin-embedded tissue was sliced at a thickness of 3 to 4 μm, stained with hematoxylin-eosin or Masson's trichrome and observed through an optical microscope.\nFrom the lung tissue specimen prepared above, alveolar areas (proportion of alveolar lumen in lung tissue), populations of the goblet cells present in the bronchus and the bronchiole, and wall thicknesses of the bronchus and the bronchiole were examined using an analysis Image processing system (SIS Germany). The alveolar areas are represented as percentages, the populations of the goblets cells in the bronchus and bronchiole as counts per 1,000 cells, and the wall thickness of the bronchus and bronchiole in μm in Table 5."}, "[3]": {"tested_on": "mouse models of ovalbumin-induced asthma", "assay": "Total count of leukocytes in blood and fractional calculation of leukocytes", "assay_type": "in vivo", "conditions": "18 days; for Total leukocytes in blood: mean ± SD; for Basophils in blood / Eosinophils in blood / Lymphocytes in blood / Monocytes in blood / Neutrophils in blood: portion per 200 leukocytes", "description": "as §1, §2, §3, §4\nOn the final day of experiment, all the experimental animals were etherized and underwent laparotomy to expose the abdominal vena cava, from which 1 ml of blood was then taken. Using a hemocytometer, a blood sample was measured for total leukocyte counts in a ×10^3/1 mm^3 unit. Immediately after blood collection, the blood sample was smeared on slide glasses, fixed with methanol, and stained with Giemsa. And then, lymphocytes, eosinophils, neutrophils, monocytes, and basophils were calculated for their respective portions per 200 leukocytes and are represented as percentages in Table 3, below."}, "[4]": {"assay": "Change in body weight gain, mouse model of ovalbumin-induced asthma", "assay_type": "in vivo", "conditions": "mean ± SD, in g (unit assumed)", "description": "as §1, §2, §3, §4\nAll the experimental animals were measured for body weight 1, 7, 14, 16 and 17 days after administration. In order to reduce difference among individuals due to feedstuff intake, all experimental animals were starved for 18 hours or more on the beginning day of the administration and on the sacrificing day before weight measurement. To minimize the difference of change in body weight of individual animals, body weight gains during time periods of the sensitization, the asthma induction after exposure and the whole experiment were calculated."}, "[5]": {"tested_on": "mouse models of ovalbumin-induced asthma", "assay": "Fractional count of cellular components of bronchoalveolar lavage fluid", "assay_type": "in vivo", "conditions": "18 days, mean ± SD", "description": "as §1, §2, §3, §4\nOn the final day of experiment, secretions present in bronchi and alveola were examined for cytological constitution. To this end, after being etherized, the experimental animals were operated to open the cervical region and the thorax. The jugular vein was allowed to bleed, followed by endotracheal intubation. 3 ml of phosphate buffered saline was injected twice through the tube and the thorax was massaged for 30 sec to obtain cell suspension from the lungs. The cell suspension was centrifuged at 3000 rpm for 30 min and resuspended in DPBS (Gibco BRL, NY, USA). After the cell suspension was smeared on a slide glass, the cells were stained with Giemsa. A total count of the whole cells present in the smear and fractional counts of neutrophils, eosinophils, basophils, macrophages, and epithelioid cells were measured and are given in Table 4, below."}, "bronchial asthma": {"tested_on": "bronchial asthma", "conditions": "Sakurada T. et al., Eur J Pharmacol 1999, cited from earlier work"}}, "data": [{"smiles": "CCCc1c(OCCCOc2cc(O)c(-c3ccc(F)cc3)cc2CC)cccc1Oc1ccccc1C(=O)O", "note": "[LY293111]", "values": [{"measurement": "Effect in treating asthma", "setting": "asthma", "result": "ineffective in treating asthma"}]}, {"smiles": "Cc1nc(-c2ccc(OCCCCCOc3ccc(C(=N)NO)cc3)cc2)c(C(C)C)s1", "note": "[Cpd. of Formula 1, N-hydroxy-4-{5-[4-(5-isopropyl-2-methyl-1,3-thiazol-4-yl)phenoxy]pentoxy}-benzamidine]", "values": [{"measurement": "Lung Absolute Wt.", "setting": "[1]; 100 mg/kg orally once a day", "result": "0.128 ± 0.007 ## g"}, {"measurement": "Lung Relative Wt.", "setting": "[1]; 100 mg/kg orally once a day", "result": "0.697 ± 0.030 ## %"}, {"measurement": "Lung Absolute Wt.", "setting": "[1]; 200 mg/kg orally once a day", "result": "0.125 ± 0.008 # g"}, {"measurement": "Lung Relative Wt.", "setting": "[1]; 200 mg/kg orally once a day", "result": "0.682 ± 0.030 ## %"}, {"measurement": "Alveolar Area (proportion of alveolar lumen in lung tissue)", "setting": "[2]; 100 mg/kg orally once a day", "result": "55.53 ± 4.26 # percentages"}, {"measurement": "Counts of goblet Cells Brochiole", "setting": "[2]; 100 mg/kg orally once a day", "result": "53.80 ± 11.73 ## counts per 1,000 cells"}, {"measurement": "Counts of goblet Cells Bronchus", "setting": "[2]; 100 mg/kg orally once a day", "result": "317.60 ± 75.46 # counts per 1,000 cells"}, {"measurement": "Wall Thick. Brochiole", "setting": "[2]; 100 mg/kg orally once a day", "result": "27.73 ± 4.68 ## μm"}, {"measurement": "Wall Thick. Bronchus", "setting": "[2]; 100 mg/kg orally once a day", "result": "60.92 ± 8.53 # μm"}, {"measurement": "Alveolar Area (proportion of alveolar lumen in lung tissue)", "setting": "[2]; 200 mg/kg orally once a day", "result": "61.62 ± 6.93 # percentages"}, {"measurement": "Counts of goblet Cells Brochiole", "setting": "[2]; 200 mg/kg orally once a day", "result": "42.80 ± 10.69 # counts per 1,000 cells"}, {"measurement": "Counts of goblet Cells Bronchus", "setting": "[2]; 200 mg/kg orally once a day", "result": "256.80 ± 71.58 # counts per 1,000 cells"}, {"measurement": "Wall Thick. Brochiole", "setting": "[2]; 200 mg/kg orally once a day", "result": "24.79 ± 3.03 # μm"}, {"measurement": "Wall Thick. Bronchus", "setting": "[2]; 200 mg/kg orally once a day", "result": "40.69 ± 5.37 # μm"}, {"measurement": "Inflammatory cell populations in tissues around the primary bronchiole and alveola and around bronchial epithelia (FIG. 1)", "setting": "[2]; compared to the control group, 100 and 200 mg/kg, optical microscope", "result": "reduction of the inflammatory cell population in the tissues in a dose-dependent pattern"}, {"measurement": "Total leukocytes in blood", "setting": "[3]; 100 mg/kg orally once a day", "result": "10.68 ± 1.76 ## ×10^3/1 mm^3"}, {"measurement": "Basophils in blood", "setting": "[3]; 100 mg/kg orally once a day", "result": "0.10 ± 0.20", "unit": "%"}, {"measurement": "Eosinophils in blood", "setting": "[3]; 100 mg/kg orally once a day", "result": "49.60 ± 15.79", "unit": "%"}, {"measurement": "Lymphocytes in blood", "setting": "[3]; 100 mg/kg orally once a day", "result": "41.70 ± 12.90", "unit": "%"}, {"measurement": "Monocytes in blood", "setting": "[3]; 100 mg/kg orally once a day", "result": "3.70 ± 1.60", "unit": "%"}, {"measurement": "Neutrophils in blood", "setting": "[3]; 100 mg/kg orally once a day", "result": "4.90 ± 2.90", "unit": "%"}, {"measurement": "Total leukocytes in blood", "setting": "[3]; 200 mg/kg orally once a day", "result": "10.44 ± 1.81 ## ×10^3/1 mm^3"}, {"measurement": "Basophils in blood", "setting": "[3]; 200 mg/kg orally once a day", "result": "0.00 ± 0.00", "unit": "%"}, {"measurement": "Eosinophils in blood", "setting": "[3]; 200 mg/kg orally once a day", "result": "36.90 ± 8.33 # %"}, {"measurement": "Lymphocytes in blood", "setting": "[3]; 200 mg/kg orally once a day", "result": "53.80 ± 5.50 # %"}, {"measurement": "Monocytes in blood", "setting": "[3]; 200 mg/kg orally once a day", "result": "4.40 ± 1.70", "unit": "%"}, {"measurement": "Neutrophils in blood", "setting": "[3]; 200 mg/kg orally once a day", "result": "5.20 ± 2.00", "unit": "%"}, {"measurement": "Body weight gain, Asthma induction period after exposure", "setting": "[4]; 100 mg/kg orally once a day", "result": "0.34 ± 0.34"}, {"measurement": "Body weight gain, Over whole experimental period", "setting": "[4]; 100 mg/kg orally once a day", "result": "2.68 ± 0.52"}, {"measurement": "Body weight gain, Sensitization period", "setting": "[4]; 100 mg/kg orally once a day", "result": "3.50 ± 0.51"}, {"measurement": "Body weight gain, Asthma induction period after exposure", "setting": "[4]; 200 mg/kg orally once a day", "result": "0.36 ± 0.59"}, {"measurement": "Body weight gain, Over whole experimental period", "setting": "[4]; 200 mg/kg orally once a day", "result": "2.90 ± 0.40"}, {"measurement": "Body weight gain, Sensitization period", "setting": "[4]; 200 mg/kg orally once a day", "result": "3.08 ± 0.71"}, {"measurement": "Basophils in bronchoalveolar lavage fluid", "setting": "[5]; 100 mg/kg orally once a day", "result": "0.50 ± 0.50", "unit": "%"}, {"measurement": "Epithelioids in bronchoalveolar lavage fluid", "setting": "[5]; 100 mg/kg orally once a day", "result": "21.00 ± 14.77", "unit": "%"}, {"measurement": "Lymphocytes in bronchoalveolar lavage fluid", "setting": "[5]; 100 mg/kg orally once a day", "result": "56.90 ± 15.04", "unit": "%"}, {"measurement": "Monocytes in bronchoalveolar lavage fluid", "setting": "[5]; 100 mg/kg orally once a day", "result": "3.10 ± 3.73", "unit": "%"}, {"measurement": "Neutrophils in bronchoalveolar lavage fluid", "setting": "[5]; 100 mg/kg orally once a day", "result": "17.50 ± 8.06", "unit": "%"}, {"measurement": "eosinophils in bronchoalveolar lavage fluid", "setting": "[5]; 100 mg/kg orally once a day", "result": "4.30 ± 1.44", "unit": "%"}, {"measurement": "Basophils in bronchoalveolar lavage fluid", "setting": "[5]; 200 mg/kg orally once a day", "result": "0.10 ± 0.22", "unit": "%"}, {"measurement": "Epithelioids in bronchoalveolar lavage fluid", "setting": "[5]; 200 mg/kg orally once a day", "result": "15.50 ± 9.74", "unit": "%"}, {"measurement": "Lymphocytes in bronchoalveolar lavage fluid", "setting": "[5]; 200 mg/kg orally once a day", "result": "56.80 ± 22.52", "unit": "%"}, {"measurement": "Monocytes in bronchoalveolar lavage fluid", "setting": "[5]; 200 mg/kg orally once a day", "result": "3.50 ± 2.57", "unit": "%"}, {"measurement": "Neutrophils in bronchoalveolar lavage fluid", "setting": "[5]; 200 mg/kg orally once a day", "result": "13.90 ± 9.85", "unit": "%"}, {"measurement": "eosinophils in bronchoalveolar lavage fluid", "setting": "[5]; 200 mg/kg orally once a day", "result": "3.60 ± 2.88", "unit": "%"}]}, {"smiles": "COc1ccc(/C=C/CCCCOc2cccc(OCCCCC(=O)O)c2CCC(=O)O)cc1", "note": "[ONO-4057]", "values": [{"measurement": "Effect on bronchial asthma, in combination", "setting": "bronchial asthma; in combination with the cysteinyl leukotriene receptor antagonist Zafirlukast", "result": "medicinal effect on bronchial asthma"}, {"measurement": "Effect on bronchial asthma, used alone", "setting": "bronchial asthma; used alone", "result": "ineffective for the treatment thereof"}]}]}
